{"source": "patent EP1500403A1", "about": "“PREVENTIVE/REMEDY FOR DIABETES” (Ajinomoto Co., Inc., priority 2002, dated 2003)", "type_in_all_cases": "in vivo", "key": {"Male Wistar rats [1]": {"tested_on": "Male Wistar rats", "assay": "Assessment of excretion action of urine sugar in rat (Test Example 2A)", "settings": "urine collected 24 hours", "method": "Male Wistar rats aged 5 weeks (purchased from Charles River Japan, Inc.) were acclimatized in metabolic cages for one week, for use at this experiment. The test compounds suspended in olive oil were dosed at 5 ml per 1 kg rat body weight.\nAfter the rats were starved for 4 hours, the test compounds were orally given to the rats at 11 am. Immediately after dosing until 24 hours later, urine was collected. The volume of urine was measured. Then, urine sugar concentration was assayed by glucose oxidase method, to calculate the glucose excretion into urine per individual per day."}, "glucose-loaded rats": {"tested_on": "glucose-loaded rats", "assay": "Blood glucose time course after oral glucose loading in rats (Example I)", "settings": "Wistar rats, glucose 1 g/kg p.o.", "method": "Wistar rats (age of 7 weeks; male) were divided into groups with matched body weights. After 17-hour starvation, glucose was orally given at 1 g/kg to the animals. Immediately after the administration, the inhibitor A of renal glucose reabsorption or the inhibitor B of renal glucose reabsorption (A at 30 mg/kg or 60 mg/kg; B at 30 mg/kg or 80 mg/kg) or glibenclamide (1 mg/kg or 2 mg/kg) or nateglinide (50 mg/kg or 80 mg/kg) was orally given. Additionally, a group on the combined use of both of an inhibitor of renal glucose reabsorption and a hypoglycemic agent was also prepared. A vehicle was orally given to a control group after glucose administration.\nBlood glucose was measured in a time course."}, "[2]": {"tested_on": "Type 2 diabetes model db/db mice", "assay": "Nateglinide load test after repeated dosing in db/db mice (Example IV)", "settings": "for Blood glucose level 30 minutes after loading / Blood glucose level 120 minutes after loading / Blood glucose level before loading: db/db mice, compound successively dosed 80 mg/kg p.o. twice daily, day 25, Mean ± SD, N = 5; for Blood glucose level 30 minutes after loading / Blood glucose level 120 minutes after loading: loading with glucose 1 g/kg and nateglinide 50 mg/kg p.o.; for Blood glucose level before loading: starved 17 hours, nateglinide load test", "method": "Type 2 diabetes model db/db mice (age 6 weeks) were fed and kept with a feed twice daily over one hour starting 9 am and one hour starting 3 pm, for one week. Then, the mice were divided into groups with matched blood glucose levels and body weights. Subsequently, the inhibitor B of renal glucose reabsorption at 80 mg/kg or nateglinide at 80 mg/kg was orally given, immediately before feeding twice daily. Only a vehicle was orally given immediately before feeding twice daily to the animals of a control group. On day 25 from the start of administration, the mice of the individual experimental groups were starved for 17 hours and then orally given glucose (1 g/kg) and nateglinide (50 mg/kg). Blood glucose levels were measured before and after the administration, to examine whether or not the hypoglycemic action of nateglinide could be observed (nateglinide load test)."}, "Male Wistar rats [3]": {"tested_on": "Male Wistar rats", "assay": "Assessment of excretion action of urine sugar in rat (Test Example 1B)", "settings": "Oral Administration in Rat (24 hours)", "method": "Male Wistar rats aged 5 weeks (purchased from Charles River Japan, Inc.) were acclimatized in metabolic cages for one week, for use at this experiment. The test compounds suspended in olive oil were prepared into solutions to a dose of 5 ml per 1 kg rat body weight. After the rats were starved for 4 hours, the test compounds were orally given at 10, 30 and 100 mg/kg to the rats at 11 am. Immediately after dosing until 24 hours later, urine was collected. The volume of urine was measured. Then, urine glucose concentration was assayed by glucose oxidase method, to calculate the glucose excretion into urine per individual per day. As a positive control, 3-(5-benzo[b]furanyl)-2'-(6-o-methoxycarbonyl-β-D-glucopyranosyldxy)-6'-hydroxy-4'-methylpropiophenone [under a different name of 3-(benzo[b]furan-5-yl)-2', 6'-dihydroxy-4'-methylpropiophenone 2'-o-(6-o-methoxycarbonyl-β-D-glucopyranoside)] was used."}, "[4]": {"tested_on": "Type 2 diabetic model GK rats", "assay": "Blood glucose after repeated once daily dosing in GK rats (Example III)", "settings": "once daily p.o., vs vehicle-dosed group (Fig. 4)", "method": "These agents were orally given once daily at the same time period as in the group administered with a single one agent. Only a vehicle was given orally to a control group. On day 25 after the start of administration, blood glucose was assayed sequentially, to compare the groups in terms of the resulting blood glucose levels."}, "[5]": {"settings": "Dose 100 mg/kg p.o. in olive oil"}, "[6]": {"settings": "nateglinide 50 mg/kg, inhibitor B 30 mg/kg, or both, p.o., vs vehicle group (Fig. 2)"}, "[7]": {"settings": "nateglinide 80 mg/kg or inhibitor B 80 mg/kg p.o., vs lower dose (Fig. 2)"}, "[8]": {"settings": "glibenclamide 1 mg/kg, inhibitor A 30 mg/kg, or both, p.o., vs vehicle group (Fig. 1)"}}}
{"smiles": "CCc1ccc(Cc2c(O[C@@H]3O[C@H](COC(=O)OC)[C@@H](O)[C@H](O)[C@H]3O)nn(-c3ccccc3)c2C(F)(F)F)cc1", "note": "[Compound of Production Example 8-A, 4'-[(4'-ethylphenyl)methyl]-1'-phenyl-5'-trifluoromethyl-1H-pyrazole-3'-o-(6-carbomethoxy)-β-D-glucopyranoside]", "values": [{"measurement": "Excreted urine sugar", "setting": "Male Wistar rats [1]; [5]", "value": 4.1, "unit": "mg"}]}
{"smiles": "COC(=O)OC[C@H]1O[C@@H](Oc2nn(C(C)C)c(C)c2Cc2ccc(C)c(F)c2)[C@H](O)[C@@H](O)[C@@H]1O", "note": "[Compound of Production Example 14-A, 4'-[(3'-fluoro-4'-methylphenyl)methyl]-1'-isopropyl-5'-methyl-1H-pyrazole-3'-o-(6-carbomethoxy)-β-D-glucopyranoside]", "values": [{"measurement": "Excreted urine sugar", "setting": "Male Wistar rats [1]; [5]", "value": 918, "unit": "mg"}]}
{"smiles": "CC(C)[C@H]1CC[C@H](C(=O)N[C@H](Cc2ccccc2)C(=O)O)CC1", "note": "[nateglinide]", "values": [{"measurement": "blood glucose level 120 minutes after glucose loading and thereafter", "setting": "glucose-loaded rats; nateglinide 50 mg/kg p.o., vs vehicle-dosed group (Fig. 2)", "value": "did not lower the blood glucose level"}, {"measurement": "hyperglycemia / blood glucose level 30 minutes after glucose loading", "setting": "glucose-loaded rats; [6]", "value": "more highly suppressed hyperglycemia"}, {"measurement": "hyperglycemia / blood glucose level 60 minutes after glucose loading", "setting": "glucose-loaded rats; [6]", "value": "more highly suppressed hyperglycemia"}, {"measurement": "pattern of glycemic suppression at increased dose", "setting": "glucose-loaded rats; [7]", "value": "did not change"}, {"measurement": "Blood glucose level 30 minutes after loading", "setting": "[2]", "value": "259 ± 18", "unit": "mg/dL"}, {"measurement": "Blood glucose level 120 minutes after loading", "setting": "[2]", "value": "144 ± 20", "unit": "mg/dL"}, {"measurement": "Blood glucose level before loading", "setting": "[2]", "value": "158 ± 12", "unit": "mg/dL"}]}
{"smiles": "COC(=O)OC[C@H]1O[C@@H](Oc2nn(C(C)C)c(C)c2Cc2ccc(OC)c(F)c2)[C@H](O)[C@@H](O)[C@@H]1O", "note": "[Compound of Production Example 10-A, 4'-[(3'-fluoro-4'-methoxyphenyl)methyl]-1'-isopropyl-5'-methyl-1H-pyrazole-3'-o-(6-carbomethoxy)-β-D-glucopyranoside]", "values": [{"measurement": "Excreted urine sugar", "setting": "Male Wistar rats [1]; [5]", "value": 734, "unit": "mg"}]}
{"smiles": "CCc1ccc(Cc2c(O[C@@H]3O[C@H](COC(=O)OC)[C@@H](O)[C@H](O)[C@H]3O)nn(C(CF)CF)c2C(F)(F)F)cc1", "note": "[Compound of Production Example 2B, 4'-[(4'-ethylphenyl)methyl]-1'-(1',3'-difluoro-2'-propyl) -5'-(trifluoromethyl) -1H-pyrazole-3'-o-(6-o-methoxycarbonyl-β-D-glucopyranoside)]", "values": [{"measurement": "Excreted urine sugar", "setting": "Male Wistar rats [3]; Dose 10 mg/kg", "value": 136, "unit": "mg"}, {"measurement": "Excreted urine sugar", "setting": "Male Wistar rats [3]; Dose 30 mg/kg", "value": 272, "unit": "mg"}, {"measurement": "Excreted urine sugar", "setting": "Male Wistar rats [3]; Dose 100 mg/kg", "value": 524, "unit": "mg"}]}
{"smiles": "CCc1ccc(Cc2c(O[C@@H]3O[C@H](COC(=O)OC)[C@@H](O)[C@H](O)[C@H]3O)nn(Cc3ccccc3)c2C(F)(F)F)cc1", "note": "[Compound of Production Example 4-A, 4'-[(4'-ethylphenyl)methyl]-1'-benzyl-5'-trifluoromethyl-1H-pyrazole-3'-o-(6-carbomethoxy)-β-D-glucopyranoside]", "values": [{"measurement": "Excreted urine sugar", "setting": "Male Wistar rats [1]; [5]", "value": 27, "unit": "mg"}]}
{"smiles": "CCc1ccc(Cc2c(O[C@@H]3O[C@H](COC(=O)OC)[C@@H](O)[C@H](O)[C@H]3O)nn(Cc3ccc(OC)cc3)c2C(F)(F)F)cc1", "note": "[Compound of Production Example 6-A, 4'-[(4'-ethylphenyl)methyl]-1'-[(4'-methoxyphenyl)methyl]-5'-trifluoromethyl-1H-pyrazole-3'-o-(6-carbomethoxy)-β-D-glucopyranoside]", "values": [{"measurement": "Excreted urine sugar", "setting": "Male Wistar rats [1]; [5]", "value": 59, "unit": "mg"}]}
{"smiles": "Cc1[nH]nc(O[C@@H]2O[C@H](CO)[C@@H](O)[C@H](O)[C@H]2O)c1Cc1ccc(OC(C)C)cc1", "note": "[4-[(4-isopropoxyphenyl)methyl)-5-methyl-1H-pyrazole-3-o-β-D-glucopyranoside]", "values": [{"measurement": "Excreted urine sugar", "setting": "Male Wistar rats [1]; [5]", "value": 14, "unit": "mg"}]}
{"smiles": "COc1ccc(Cl)cc1C(=O)NCCc1ccc(S(=O)(=O)NC(=O)NC2CCCCC2)cc1", "note": "[glibenclamide]", "values": [{"measurement": "blood glucose level", "setting": "[4]; day 25, glibenclamide 3 mg/kg, inhibitor A 30 mg/kg, or both", "value": "no difference was observed from the vehicle-dosed group"}, {"measurement": "blood glucose level", "setting": "[4]; day 25, glibenclamide 6 mg/kg", "value": "did not produce any difference in blood glucose level from the vehicle-dosed group"}, {"measurement": "blood glucose level 120 minutes after glucose loading and thereafter", "setting": "glucose-loaded rats; [8]", "value": "lowered blood glucose"}, {"measurement": "hyperglycemia / blood glucose level immediately after glucose loading (30 minutes)", "setting": "glucose-loaded rats; [8]", "value": "did not suppress hyperglycemia"}, {"measurement": "pattern of glycemic suppression at increased dose", "setting": "glucose-loaded rats; glibenclamide 2 mg/kg or inhibitor A 60 mg/kg p.o., vs lower dose (Fig. 1)", "value": "did not change"}]}
{"smiles": "COC(=O)OC[C@H]1O[C@@H](Oc2cc(C)cc(O)c2C(=O)CCc2ccc3occc3c2)[C@H](O)[C@@H](O)[C@@H]1O", "note": "[3-(5-benzo[b]furanyl)-2'-(6-o-methoxycarbonyl-β-D-glucopyranosyloxy)-6'-hydroxy-4'-methylpropiophenone]", "values": [{"measurement": "blood glucose level 180 minutes after glucose loading and thereafter", "setting": "glucose-loaded rats; inhibitor B 30 mg/kg alone or with nateglinide 50 mg/kg, p.o., vs vehicle group (Fig. 2)", "value": "lower than that in the vehicle-dosed group"}, {"measurement": "hyperglycemia / blood glucose level 30 minutes after glucose loading", "setting": "glucose-loaded rats; [6]", "value": "not reduced as greatly as in the case of nateglinide"}, {"measurement": "pattern of glycemic suppression at increased dose", "setting": "glucose-loaded rats; [7]", "value": "pattern of glycemic suppression was also observed"}, {"measurement": "hyperglycemia due to glucose loading, 30 minutes after loading with glucose and nateglinide", "setting": "[2]; db/db mice given inhibitor B 80 mg/kg twice daily long-term, compared with vehicle-dosed and nateglinide-dosed groups", "value": "greatly suppressed hyperglycemia"}, {"measurement": "Blood glucose level 30 minutes after loading", "setting": "[2]", "value": "172 ± 14", "unit": "mg/dL"}, {"measurement": "Blood glucose level 120 minutes after loading", "setting": "[2]", "value": "103 ± 5", "unit": "mg/dL"}, {"measurement": "Blood glucose level before loading", "setting": "[2]", "value": "131 ± 6", "unit": "mg/dL"}, {"measurement": "Excreted urine sugar", "setting": "Male Wistar rats [3]; Dose 10 mg/kg", "value": 2, "unit": "mg"}, {"measurement": "Excreted urine sugar", "setting": "Male Wistar rats [3]; Dose 30 mg/kg", "value": 78, "unit": "mg"}, {"measurement": "Excreted urine sugar", "setting": "Male Wistar rats [3]; Dose 100 mg/kg", "value": 274, "unit": "mg"}]}
{"smiles": "CCc1ccc(Cc2c(O[C@@H]3O[C@H](COC(=O)OC)[C@@H](O)[C@H](O)[C@H]3O)nn(C(C)C)c2C)cc1", "note": "[Compound of Production Example 16-A, 4'-[(4-ethylphenyl)methyl]-1'-isopropyl-5'-methyl-1H-pyrazole-3'-o-(6-carbomethoxy)-β-D-glucopyranoside]", "values": [{"measurement": "Excreted urine sugar", "setting": "Male Wistar rats [1]; Dose 3 mg/kg p.o. in olive oil", "value": 28, "unit": "mg"}, {"measurement": "Excreted urine sugar", "setting": "Male Wistar rats [1]; Dose 10 mg/kg p.o. in olive oil", "value": 263, "unit": "mg"}, {"measurement": "Excreted urine sugar", "setting": "Male Wistar rats [1]; Dose 30 mg/kg p.o. in olive oil", "value": 294, "unit": "mg"}, {"measurement": "Excreted urine sugar", "setting": "Male Wistar rats [1]; [5]", "value": 598, "unit": "mg"}]}
